Measurements reported in ChEMBL document CHEMBL1145001, “Angiotensin II AT1 receptor antagonists. Clinical implications of active metabolites” (J Med Chem, 2003).

Experiments:
[1] = biological target: T1, Type-1 angiotensin II receptor (Homo sapiens) (UniProt P30556); assay: Inhibition against Angiotensin II receptor, type 1
T1 sequence (whole entry): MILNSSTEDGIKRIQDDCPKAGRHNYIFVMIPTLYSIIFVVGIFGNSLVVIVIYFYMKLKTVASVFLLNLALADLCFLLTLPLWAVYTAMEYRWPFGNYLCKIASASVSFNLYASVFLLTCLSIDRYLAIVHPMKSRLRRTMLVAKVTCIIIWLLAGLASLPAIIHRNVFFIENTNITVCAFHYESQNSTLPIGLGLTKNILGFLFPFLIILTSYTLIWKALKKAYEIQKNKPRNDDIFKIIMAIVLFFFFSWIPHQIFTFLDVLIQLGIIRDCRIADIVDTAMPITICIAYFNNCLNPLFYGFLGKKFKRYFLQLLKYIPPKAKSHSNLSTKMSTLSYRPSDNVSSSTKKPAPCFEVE

[2] = biological target: T1, Type-1 angiotensin II receptor (Homo sapiens); assay: Relative binding affinity of compound to Angiotensin II receptor, type 1 was determined
[3] = Half life of compound was determined; type: ADME
[4] = Total clearance value was evaluated; type: ADME, organism-based; conditions: in vivo
[5] = Renal clearance value was evaluated; type: ADME, organism-based, Kidney; conditions: in vivo
[6] = Acid dissociation value was evaluated; type: ADME
[7] = Absolute bioavailability of compound was determined; type: ADME, organism-based; conditions: in vivo; read-out: Bioavailabiility
[8] = Effective concentration of compound to stimulate 300% increase of growth hormone secretion; type: functional
[9] = biological target: T2, Type-1 angiotensin II receptor (Homo sapiens, UniProt P30556); assay: Compound was tested for inhibition against Angiotensin II receptor, type 1
T2 sequence (P30556 whole entry): T1 sequence (whole entry)

[10] = biological target: Phosphodiesterase 4 (Homo sapiens, UniProt P27815+Q08499+Q07343+Q08493); assay: Inhibition of phosphodiesterase 4 (PDE 4); type: protein assay
[11] = biological target: Phosphodiesterase 3 (Homo sapiens, UniProt Q14432+Q13370); assay: Inhibition of phosphodiesterase 3(PDE 3); type: protein assay
[12] = biological target: T2, Type-1 angiotensin II receptor; assay: Inhibition constant against Angiotensin II receptor, type 1 was determined
[13] = Inhibition of bovine cAMP phosphodiesterase; parameters: species or system Bos taurus
[14] = Acid dissociation constant was evaluated; type: ADME
[15] = Inhibition of Phosphodiesterase 4
[16] = Inhibition of calcium calmodulin-dependent cGMP-Phosphodiesterase 1

Compound	AT1 affinity [1] [nM l-1]	Relative binding affinity [2]	half-life [3] [h]	CLtotal [4] [mL/s]	CL_renal [5] [mL/s]	pKa [6]	other results
CCOc1nc2cccc(C(=O)O)c2n1Cc1ccc(-c2ccccc2-c2nnn[nH]2)cc1	0.1	1	> 9	1	> 7	3.9	–
CCCc1nc2c(C)cc(-c3nc4ccccc4n3C)cc2n1Cc1ccc(-c2ccccc2C(=O)O)cc1	1	10	> 20	19	< 5	4.5	bioavailability [7]: 43%
CCCCC(=O)N(Cc1ccc(-c2ccccc2-c2nnn[nH]2)cc1)[C@H](C(=O)O)C(C)C	1.4	–	6.1	37	4.8	3.1	–
CNC(=O)NCc1ccccc1-c1ccc(CN2C(=O)[C@H](NC(=O)CC(C)(C)N)CCc3ccccc32)cc1	–	–	–	–	–	–	EC50 [8]: 0.003 µM
CCCCc1nc(Cl)c(C=O)n1Cc1ccc(-c2ccccc2-c2nn[nH]n2)cc1	20	–	–	–	–	4	–
CC(C)(N)CC(=O)N[C@@H]1CCc2ccccc2N(Cc2ccc(-c3ccccc3-c3nn[nH]n3)cc2)C1=O	–	–	–	–	–	–	EC50 [8]: 0.003 µM
Cc1nc(C(=O)O)nc2c1CCC(=O)N2Cc1ccc(-c2ccccc2-c2nnn[nH]2)cc1	–	–	–	–	–	–	IC50 [9]: 0.011 µM
CCCCc1nc(SCc2ccc(-c3ccccc3-c3nn[nH]n3)cc2)c2ccccc2n1	–	–	–	–	–	–	IC50 [10]: 2.9 µM; IC50 [11]: 8 µM
O=C(O)c1nc(CO)nc2c1CCC(=O)N2Cc1ccc(-c2ccccc2-c2nn[nH]n2)cc1	–	–	–	–	–	–	IC50 [9]: 0.044 µM
CC(O)CCC(=O)N(c1ccc(-c2ccccc2-c2nnn[nH]2)cc1)[C@H](C(=O)O)C(C)C (stereo partly drawn)	–	–	–	–	–	–	IC50 [9]: 0.47 µM; Ki [12]: 0.37 µM
CCOc1nc2cccc(C(=O)OC(C)OC(=O)OC3CCCCC3)c2n1Cc1ccc(-c2ccccc2-c2nn[nH]n2)cc1 (stereo not drawn)	–	–	–	–	–	–	AT1 affinity [2]: 280
CCCCc1nc(Cl)c(C(=O)O)n1Cc1ccc(-c2ccccc2-c2nn[nH]n2)cc1 [CARBOXYLIC ACID METABOLITE]	1.3	10	4.4	0.78	0.4	2.8	IC50 [13]: 38.9 µM
Cc1nc(C)c2c(O)cc(=O)n(Cc3ccc(-c4ccccc4-c4nnn[nH]4)cc3)c2n1 [ENOLTASOSARTAN]	–	–	–	–	–	–	IC50 [9]: 0.00017 µM; pKa [14]: 9.4
CCCCc1ncc(/C=C(\Cc2cccs2)C(=O)O)n1Cc1ccc(C(=O)O)cc1 [EPROSARTAN]	1.5	100	5	2.5	0.6	4	–
CCCCC1=NC2(CCCC2)C(=O)N1Cc1ccc(-c2ccccc2-c2nnn[nH]2)cc1 [IRBESARTAN]	1.3	–	10	5.1	0.02	4.7	–
CCCCc1nc(Cl)c(CO)n1Cc1ccc(-c2ccccc2-c2nn[nH]n2)cc1 [LOSARTAN POTASSIUM]	–	–	–	–	–	4.9	–
CCCCc1nc(Cl)c(CO)n1Cc1ccc(-c2ccccc2-c2nnn[n-]2)cc1.[K+] [LOSARTAN POTASSIUM]	6.4	50	1.5	10	1.1	–	IC50 [15]: 26 µM; IC50 [13]: 139 µM; IC50 [16]: 100 µM
Cc1nc(C)c2c(n1)N(Cc1ccc(-c3ccccc3-c3nnn[nH]3)cc1)C(=O)CC2 [TASOSARTAN]	1.2	20	11	–	–	4	IC50 [9]: 0.032 µM
